Reference: patent US10676485B2, “Macrocyclic MCL-1 inhibitors and methods of use” (AbbVie Inc., priority 2017, dated 2020)
Like-named read-outs stand apart in the source and are kept apart here.

Assays:
GST-MCL-1 = GST-MCL-1 (Homo sapiens (Human), UniProt Q07820); experiment: TR-FRET MCL-1 binding assay (competition with probe F-Bak)
How it was run: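 Tested both in plain buffer and with 10% human serum. Top concentration 25 μM, 11 three-fold steps, 2 h room-temperature incubation of GST-MCL-1 with Tb-labelled anti-His antibody and F-Bak probe. Time-resolved FRET: 340 nm excitation, 520/525 and 495/510 nm emission.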

[1] = tested on: AMO-1 human multiple myeloma tumor cell line; experiment: AMO-1 cell viability assay (CellTiter-Glo); assay type: cell-based; conditions: AMO1, read-out: AMO-1 Viability IC50 (μM), 10% FBS, 24 hours of compound treatment
[2] = tested on: NCI-H929 human multiple myeloma tumor cell line; experiment: NCI-H929 cell viability assay (CellTiter-Glo); assay type: cell-based; conditions: NCI-H929, read-out: H929 Viability IC50 (μM), 10% FBS, 24 hours of compound treatment
[3] = read-out: MCL-1 Binding Ki (nM, 10% HS), in the presence of 10% HS
[4] = without HS, read-out: MCL-1 Binding Ki

Chain of GST-MCL-1 (Q07820 whole entry): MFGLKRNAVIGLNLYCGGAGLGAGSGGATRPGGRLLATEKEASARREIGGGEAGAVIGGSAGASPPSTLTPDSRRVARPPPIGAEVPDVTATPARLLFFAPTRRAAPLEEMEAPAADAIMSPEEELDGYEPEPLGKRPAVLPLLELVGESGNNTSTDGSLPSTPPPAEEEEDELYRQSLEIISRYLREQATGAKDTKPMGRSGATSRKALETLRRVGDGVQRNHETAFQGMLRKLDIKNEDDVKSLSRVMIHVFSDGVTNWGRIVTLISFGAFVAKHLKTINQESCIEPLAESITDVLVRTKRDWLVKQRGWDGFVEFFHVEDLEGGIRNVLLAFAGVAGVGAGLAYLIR

Row | SMILES | Ki (GST-MCL-1; [3]) [nM] | Ki (GST-MCL-1; [4]) [nM] | IC50 [1] [µM] | IC50 [2] [µM]
1 | Cc1c(Cl)c2c(Cl)c(C)c1-c1c(-c3ccc(F)cc3)sc3ncnc(c13)O[C@@H](C(=O)O)Cc1cc(ccc1OCc1ccnc([C@H]3CC[C@@H](OCC4COCCO4)CC3)n1)OC[C@@H](CN1CCN(C)CC1)O2 (stereo partly drawn) [Example 15, (7R,16R)-19,23-dichloro-10-[(2-{(1s,4s)-4-[(1,4-dioxan-2-yl)methoxy]cyclohexyl}pyrimidin-4-yl)methoxy]-1-(4-fluorophenyl)-20,22-dimethyl-16-[(4-methylpiperazin-1-yl)methyl]-7,8,15,16-tetrahydro-18,21-etheno-13,9-(metheno)-6,14,17-trioxa-2-thia-3,5-diazacyclononadeca[1,2,3-cd]indene-7-carboxylic acid] | 0.15 | 0.013 | 0.000156 | 0.000294
2 | Cc1c(Cl)c2c(Cl)c(C)c1-c1c(-c3ccc(F)cc3)sc3ncnc(c13)O[C@@H](C(=O)O)Cc1cc(ccc1OCc1ccnc([C@H]3CC[C@H](OC[C@H]4COCCO4)CC3)n1)OC[C@@H](CN1CCN(C)CC1)O2 [Example 9, (7R,16R)-19,23-dichloro-10-({2-[(1R,4r)-4-{[(2R)-1,4-dioxan-2-yl]methoxy}cyclohexyl]pyrimidin-4-yl}methoxy)-1-(4-fluorophenyl)-20,22-dimethyl-16-[(4-methylpiperazin-1-yl)methyl]-7,8,15,16-tetrahydro-18,21-etheno-13,9-(metheno)-6,14,17-trioxa-2-thia-3,5-diazacyclononadeca[1,2,3-cd]indene-7-carboxylic acid] | 0.1 | 0.005 | 0.000165 | 0.000245
3 | Cc1c(Cl)c2c(Cl)c(C)c1-c1c(-c3ccc(F)cc3)sc3ncnc(c13)O[C@@H](C(=O)O)Cc1cc(ccc1OCc1nccc(-c3ccc(OC[C@H]4COCCO4)cc3)n1)OC[C@@H](CN1CCN(C)CC1)O2 [Example 23, (7R,16R)-19,23-dichloro-10-{[4-(4-{[(2R)-1,4-dioxan-2-yl]methoxy}phenyl)pyrimidin-2-yl]methoxy}-1-(4-fluorophenyl)-20,22-dimethyl-16-[(4-methylpiperazin-1-yl)methyl]-7,8,15,16-tetrahydro-18,21-etheno-13,9-(metheno)-6,14,17-trioxa-2-thia-3,5-diazacyclononadeca[1,2,3-cd]indene-7-carboxylic acid] | 41 | 4.98 | 0.00315 | 0.00849
4 | Cc1c(Cl)c2c(Cl)c(C)c1-c1c(-c3ccc(F)cc3)sc3ncnc(c13)O[C@@H](C(=O)O)Cc1cc(ccc1OCc1ccnc([C@H]3CC[C@@](F)(COC[C@H]4COCCO4)CC3)n1)OC[C@@H](CN1CCN(C)CC1)O2 [Example 47, (7R,16R)-19,23-dichloro-10-({2-[(1R,4r)-4-({[(2R)-1,4-dioxan-2-yl]methoxy}methyl)-4-fluorocyclohexyl]pyrimidin-4-yl}methoxy)-1-(4-fluorophenyl)-20,22-dimethyl-16-[(4-methylpiperazin-1-yl)methyl]-7,8,15,16-tetrahydro-18,21-etheno-13,9-(metheno)-6,14,17-trioxa-2-thia-3,5-diazacyclononadeca[1,2,3-cd]indene-7-carboxylic acid] | 0.521 | 0.0133 | 0.000463 | 0.000344
5 | Cc1c(Cl)c2c(Cl)c(C)c1-c1c(C3=CCCC3)sc3ncnc(c13)O[C@@H](C(=O)O)Cc1cc(ccc1OCc1ccnc([C@H]3CC[C@@](F)(COC[C@@H]4COCCO4)CC3)n1)OC[C@@H](CN1CCN(C)CC1)O2 [Example 37, (7R,16R)-19,23-dichloro-1-(cyclopent-1-en-1-yl)-10-({2-[(1S,4r)-4-({[(2S)-1,4-dioxan-2-yl]methoxy}methyl)-4-fluorocyclohexyl]pyrimidin-4-yl}methoxy)-20,22-dimethyl-16-[(4-methylpiperazin-1-yl)methyl]-7,8,15,16-tetrahydro-18,21-etheno-13,9-(metheno)-6,14,17-trioxa-2-thia-3,5-diazacyclononadeca[1,2,3-cd]indene-7-carboxylic acid] | 0.63 | 0.051 | 0.000187 | 0.00053
